Measurements as given in ChEMBL document CHEMBL1909046, “DrugMatrix in vitro pharmacology data”.

Legend:
[1] = biological target: T1, Cysteinyl leukotriene receptor 1 (Homo sapiens, UniProt Q9Y271); format: cell membranes, CHO-K1, Membrane; details: cho-k1; also: in other assays of this panel Not Active means under 50% inhibition at 10 µM
T1 sequence (Q9Y271 whole entry): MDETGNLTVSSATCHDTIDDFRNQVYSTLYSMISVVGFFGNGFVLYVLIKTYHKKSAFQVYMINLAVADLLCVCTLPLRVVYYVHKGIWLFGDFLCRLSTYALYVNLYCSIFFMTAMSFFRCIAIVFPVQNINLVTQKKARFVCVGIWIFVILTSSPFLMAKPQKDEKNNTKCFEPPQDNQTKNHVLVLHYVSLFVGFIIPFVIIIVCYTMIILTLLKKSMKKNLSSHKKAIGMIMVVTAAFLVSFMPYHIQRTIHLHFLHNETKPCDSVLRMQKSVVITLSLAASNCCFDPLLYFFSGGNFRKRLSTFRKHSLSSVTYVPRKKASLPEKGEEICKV

Acetylcholinesterase = Acetylcholinesterase (Homo sapiens, UniProt P22303); test: DRUGMATRIX: Acetylcholinesterase enzyme inhibition (substrate: acetylthiocholine); format: cell-based, HEK293; details: Not Active = under 50% inhibition at 10 µM
Sequence of Acetylcholinesterase (P22303 whole entry): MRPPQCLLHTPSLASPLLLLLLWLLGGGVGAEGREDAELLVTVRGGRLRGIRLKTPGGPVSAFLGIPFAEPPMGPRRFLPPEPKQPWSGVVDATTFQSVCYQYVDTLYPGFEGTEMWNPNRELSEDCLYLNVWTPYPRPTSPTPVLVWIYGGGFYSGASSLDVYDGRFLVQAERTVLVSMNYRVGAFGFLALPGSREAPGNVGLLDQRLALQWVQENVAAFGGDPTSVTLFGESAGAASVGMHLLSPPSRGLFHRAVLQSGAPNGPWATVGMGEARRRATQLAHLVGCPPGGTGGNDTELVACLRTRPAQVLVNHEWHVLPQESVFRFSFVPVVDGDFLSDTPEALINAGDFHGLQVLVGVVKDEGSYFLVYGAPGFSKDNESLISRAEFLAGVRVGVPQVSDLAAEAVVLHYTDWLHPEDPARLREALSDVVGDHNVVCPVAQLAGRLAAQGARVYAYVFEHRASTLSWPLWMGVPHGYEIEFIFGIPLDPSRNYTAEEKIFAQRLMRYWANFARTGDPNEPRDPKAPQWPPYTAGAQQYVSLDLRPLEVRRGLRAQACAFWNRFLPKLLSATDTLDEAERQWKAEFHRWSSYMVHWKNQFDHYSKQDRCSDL

[2] = biological target: Matrix metalloproteinase-9 (Homo sapiens, UniProt P14780); test: biochemical; format: cell-based;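 also: inhibition of isolated MMP-9 enzyme activity toward a synthetic peptide substrate, from the DrugMatrix protease screening panel; in other assays of this panel Not Active means under 50% inhibition at 10 µM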
Sequence of Matrix metalloproteinase-9 (P14780 whole entry): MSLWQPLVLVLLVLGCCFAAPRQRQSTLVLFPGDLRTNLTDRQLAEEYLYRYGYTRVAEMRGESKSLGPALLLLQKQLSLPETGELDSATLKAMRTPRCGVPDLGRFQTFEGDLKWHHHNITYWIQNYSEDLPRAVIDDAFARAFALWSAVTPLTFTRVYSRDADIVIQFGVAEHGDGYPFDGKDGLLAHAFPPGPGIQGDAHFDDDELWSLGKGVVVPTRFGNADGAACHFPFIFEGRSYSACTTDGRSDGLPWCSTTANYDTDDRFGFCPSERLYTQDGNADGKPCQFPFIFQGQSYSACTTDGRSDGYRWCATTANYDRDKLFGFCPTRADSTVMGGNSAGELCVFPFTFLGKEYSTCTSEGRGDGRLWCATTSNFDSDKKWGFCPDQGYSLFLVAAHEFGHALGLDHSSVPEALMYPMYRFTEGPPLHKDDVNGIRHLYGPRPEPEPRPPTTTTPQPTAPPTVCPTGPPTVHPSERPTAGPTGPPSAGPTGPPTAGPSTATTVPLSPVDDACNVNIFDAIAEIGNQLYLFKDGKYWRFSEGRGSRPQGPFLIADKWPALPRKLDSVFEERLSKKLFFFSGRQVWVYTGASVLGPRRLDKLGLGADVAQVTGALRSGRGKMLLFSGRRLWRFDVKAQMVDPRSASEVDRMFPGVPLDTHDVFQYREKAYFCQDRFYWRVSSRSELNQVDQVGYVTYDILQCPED

[3] = biological target: Voltage-gated inwardly rectifying potassium channel KCNH2 (Homo sapiens, UniProt Q12809); details: hek293; also: in other assays of this panel Not Active means under 50% inhibition at 10 µM
Sequence of Voltage-gated inwardly rectifying potassium channel KCNH2 (Q12809 whole entry): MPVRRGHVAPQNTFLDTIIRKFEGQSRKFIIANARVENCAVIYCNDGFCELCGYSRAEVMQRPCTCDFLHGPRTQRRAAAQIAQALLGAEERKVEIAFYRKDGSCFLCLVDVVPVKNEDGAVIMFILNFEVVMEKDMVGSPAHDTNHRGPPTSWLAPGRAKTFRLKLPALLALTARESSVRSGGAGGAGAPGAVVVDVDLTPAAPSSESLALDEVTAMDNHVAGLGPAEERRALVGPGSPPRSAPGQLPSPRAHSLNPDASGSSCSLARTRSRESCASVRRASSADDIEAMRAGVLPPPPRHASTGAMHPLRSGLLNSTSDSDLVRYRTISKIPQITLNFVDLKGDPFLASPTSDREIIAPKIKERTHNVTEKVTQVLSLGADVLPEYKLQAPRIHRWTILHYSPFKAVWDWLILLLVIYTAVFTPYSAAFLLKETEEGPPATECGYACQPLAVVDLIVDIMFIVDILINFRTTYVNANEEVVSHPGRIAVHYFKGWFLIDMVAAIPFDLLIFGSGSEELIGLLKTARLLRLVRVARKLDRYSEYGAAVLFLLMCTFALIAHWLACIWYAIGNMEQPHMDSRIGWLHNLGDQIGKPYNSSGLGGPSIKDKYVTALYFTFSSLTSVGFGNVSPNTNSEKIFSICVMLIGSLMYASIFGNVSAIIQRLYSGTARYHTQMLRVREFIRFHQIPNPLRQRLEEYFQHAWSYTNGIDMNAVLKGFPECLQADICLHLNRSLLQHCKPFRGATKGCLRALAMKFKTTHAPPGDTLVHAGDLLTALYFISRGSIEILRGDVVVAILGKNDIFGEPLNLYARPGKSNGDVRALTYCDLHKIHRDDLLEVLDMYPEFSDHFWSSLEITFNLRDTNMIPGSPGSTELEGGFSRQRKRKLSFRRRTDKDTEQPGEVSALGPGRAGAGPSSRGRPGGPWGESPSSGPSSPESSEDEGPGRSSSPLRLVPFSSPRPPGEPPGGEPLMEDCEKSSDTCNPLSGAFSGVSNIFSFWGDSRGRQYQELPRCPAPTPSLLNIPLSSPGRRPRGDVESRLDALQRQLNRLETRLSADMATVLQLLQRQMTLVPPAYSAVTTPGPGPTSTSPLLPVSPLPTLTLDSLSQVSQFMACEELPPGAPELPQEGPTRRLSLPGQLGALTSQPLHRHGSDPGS

[4] = DRUGMATRIX: Serotonin (5-Hydroxytryptamine) 5-HT3 radioligand binding (ligand: [3H] GR-65630); format: cell membranes, Membrane; details: hek293; Not Active = under 50% inhibition at 10 µM
[5] = biological target: Beta-1 adrenergic receptor (Homo sapiens, UniProt P08588); test: DRUGMATRIX: Adrenergic beta1 radioligand binding (ligand: [125I] Cyanopindolol); format: cell membranes, CHO-K1, Membrane; details: cho-k1; Not Active = under 50% inhibition at 10 µM
Sequence of Beta-1 adrenergic receptor (P08588 whole entry): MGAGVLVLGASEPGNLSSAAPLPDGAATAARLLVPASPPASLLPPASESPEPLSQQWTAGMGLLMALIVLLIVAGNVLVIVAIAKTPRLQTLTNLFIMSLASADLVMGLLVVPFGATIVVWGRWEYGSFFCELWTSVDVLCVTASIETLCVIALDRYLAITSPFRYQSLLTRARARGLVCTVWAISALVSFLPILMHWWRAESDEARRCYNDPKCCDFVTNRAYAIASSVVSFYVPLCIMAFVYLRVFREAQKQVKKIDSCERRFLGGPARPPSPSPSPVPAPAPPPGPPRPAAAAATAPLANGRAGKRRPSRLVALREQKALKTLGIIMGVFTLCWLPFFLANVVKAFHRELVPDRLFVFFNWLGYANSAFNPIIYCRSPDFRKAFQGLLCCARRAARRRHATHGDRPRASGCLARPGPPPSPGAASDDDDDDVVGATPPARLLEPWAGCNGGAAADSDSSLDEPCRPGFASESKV

Estrogen receptor beta = Estrogen receptor beta (Homo sapiens, UniProt Q92731); details: sf9; also: in other assays of this panel Not Active means under 50% inhibition at 10 µM
Sequence of Estrogen receptor beta (Q92731 whole entry): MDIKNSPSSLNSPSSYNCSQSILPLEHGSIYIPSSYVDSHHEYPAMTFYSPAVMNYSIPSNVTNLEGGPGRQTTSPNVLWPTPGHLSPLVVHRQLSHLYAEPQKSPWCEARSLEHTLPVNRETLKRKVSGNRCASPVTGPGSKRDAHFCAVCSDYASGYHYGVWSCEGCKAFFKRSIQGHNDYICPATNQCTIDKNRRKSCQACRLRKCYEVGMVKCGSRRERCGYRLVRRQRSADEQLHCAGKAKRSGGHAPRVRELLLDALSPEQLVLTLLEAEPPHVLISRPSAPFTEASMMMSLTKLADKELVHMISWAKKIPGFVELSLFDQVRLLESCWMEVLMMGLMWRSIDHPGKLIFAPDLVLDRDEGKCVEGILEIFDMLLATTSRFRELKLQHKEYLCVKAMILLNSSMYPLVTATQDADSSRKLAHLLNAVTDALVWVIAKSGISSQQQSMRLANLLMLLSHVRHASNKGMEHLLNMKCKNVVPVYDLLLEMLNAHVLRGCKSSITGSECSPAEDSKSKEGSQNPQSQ

Row | Compound | IC50 [1] | IC50 (Acetylcholinesterase; hek293) | IC50 [2] | IC50 [3] | Ki [3] | IC50 [4] | Ki [4] | IC50 [5] | IC50 (Estrogen receptor beta) | Ki [1] | Ki (Acetylcholinesterase; hek293) | Ki [2] | Ki [5] | Ki (Estrogen receptor beta) | IC50 (Acetylcholinesterase; read-out: IC50)
1 | CC1(C)O[C@@H]2C[C@H]3[C@@H]4CCC5=CC(=O)CC[C@]5(C)[C@@]4(F)[C@@H](O)C[C@]3(C)[C@]2(C(=O)CCl)O1 [HALCINONIDE] | Not Active | Not Active | Not Active | Not Active | Not Active | Not Active | Not Active | Not Active | Not Active | – | – | – | – | – | –
2 | LIPOPOLYSACCHARIDE E. COLI O55:B5 | Not Active | Not Active | Not Active | Not Active | Not Active | Not Active | Not Active | Not Active | Not Active | Not Active | Not Active | Not Active | Not Active | Not Active | –
3 | COc1cc2c3cc1Oc1cc(ccc1O)C[C@@H]1c4c(cc(OC)c(O)c4Oc4ccc(cc4)C[C@@H]3N(C)CC2)CC[N+]1(C)C.[Cl-] | Not Active | Not Active | Not Active | Not Active | Not Active | Not Active | Not Active | Not Active | Not Active | – | – | – | – | – | –
4 | Cc1cc(C(C#N)c2ccc(Cl)cc2)c(Cl)cc1NC(=O)c1cc(I)cc(I)c1O (stereo not drawn) [CLOSANTEL] | Not Active | – | Not Active | Not Active | Not Active | Not Active | Not Active | Not Active | Not Active | – | – | – | – | – | 2.95 µM
5 | Cc1onc(-c2ccccc2Cl)c1C(=O)N[C@@H]1C(=O)N2[C@@H]1SC(C)(C)[C@@H]2C(=O)O [CLOXACILLIN] | Not Active | Not Active | Not Active | Not Active | Not Active | Not Active | Not Active | Not Active | Not Active | – | – | – | – | – | –
6 | CADMIUM ACETATE | Not Active | Not Active | Not Active | Not Active | Not Active | Not Active | Not Active | Not Active | Not Active | Not Active | Not Active | Not Active | Not Active | Not Active | –
7 | CN(C)CCCN1c2ccccc2Sc2ccccc21 [PROMAZINE] | Not Active | Not Active | Not Active | Not Active | Not Active | Not Active | Not Active | Not Active | Not Active | – | – | – | – | – | –
8 | CN(C)c1nc(N(C)C)nc(N(C)C)n1 [ALTRETAMINE] | Not Active | Not Active | Not Active | Not Active | Not Active | Not Active | Not Active | Not Active | Not Active | – | – | – | – | – | –
9 | CC1CC(OC(=O)C(O)c2ccccc2)CC(C)(C)C1 (stereo not drawn) [CYCLANDELATE] | Not Active | Not Active | Not Active | Not Active | Not Active | Not Active | Not Active | Not Active | Not Active | – | – | – | – | – | –
10 | CCCN1C[C@H](CSC)C[C@@H]2c3cccc4[nH]cc(c34)C[C@H]21 [PERGOLIDE] | Not Active | Not Active | Not Active | Not Active | Not Active | Not Active | Not Active | Not Active | Not Active | – | – | – | – | – | –
11 | c1ccc2c(c1)c1cccc3ccc4cccc2c4c31 [BENZO[E]PYRENE] | Not Active | Not Active | Not Active | Not Active | Not Active | Not Active | Not Active | Not Active | Not Active | – | – | – | – | – | –
12 | CC(C)[C@@]1(NC(=O)[C@@H]2C[C@@H]3c4cccc5[nH]cc(c45)C[C@H]3N(C)C2)O[C@@]2(O)[C@@H]3CCCN3C(=O)[C@H](Cc3ccccc3)N2C1=O.CS(=O)(=O)O [DIHYDROERGOCRISTINE MESYLATE] | Not Active | Not Active | Not Active | Not Active | Not Active | Not Active | Not Active | Not Active | Not Active | – | – | – | – | – | –
13 | CC[C@@]1(O)C[C@H](O[C@H]2C[C@H](N(C)C)[C@H](O[C@H]3C[C@H](O)[C@H](O[C@H]4CCC(=O)[C@H](C)O4)[C@H](C)O3)[C@H](C)O2)c2c(cc3c(c2O)C(=O)c2c(O)cccc2C3=O)[C@H]1C(=O)OC [ACLARUBICIN] | Not Active | Not Active | Not Active | Not Active | Not Active | Not Active | Not Active | Not Active | Not Active | – | – | – | – | – | –
14 | CCn1cc(C(=O)O)c(=O)c2cc(F)c(N3CCNCC3)cc21 [NORFLOXACIN] | Not Active | Not Active | Not Active | Not Active | Not Active | Not Active | Not Active | Not Active | Not Active | – | – | – | – | – | –
15 | Cc1c(O)c(=O)ccn1C [DEFERIPRONE] | Not Active | Not Active | Not Active | Not Active | Not Active | Not Active | Not Active | Not Active | Not Active | – | – | – | – | – | –
16 | NC1=NC(=O)C(c2ccccc2)O1 (stereo not drawn) [PEMOLINE] | Not Active | Not Active | Not Active | Not Active | Not Active | Not Active | Not Active | Not Active | Not Active | – | – | – | – | – | –
17 | Sc1ncnc2nc[nH]c12 [MERCAPTOPURINE ANHYDROUS] | Not Active | Not Active | Not Active | Not Active | Not Active | Not Active | Not Active | Not Active | Not Active | – | – | – | – | – | –
18 | O=c1[nH]c(=O)n([C@H]2C[C@H](O)[C@@H](CO)O2)cc1I [IDOXURIDINE] | Not Active | Not Active | Not Active | Not Active | Not Active | Not Active | Not Active | Not Active | Not Active | – | – | – | – | – | –
19 | CNNCc1ccc(C(=O)NC(C)C)cc1 [PROCARBAZINE] | Not Active | Not Active | Not Active | Not Active | Not Active | Not Active | Not Active | Not Active | Not Active | – | – | – | – | – | –
20 | CC(C)C(=O)Nc1ccc([N+](=O)[O-])c(C(F)(F)F)c1 [FLUTAMIDE] | Not Active | Not Active | Not Active | Not Active | Not Active | Not Active | Not Active | Not Active | Not Active | – | – | – | – | – | –
21 | LEAD (II) ACETATE | Not Active | Not Active | Not Active | Not Active | Not Active | Not Active | Not Active | Not Active | Not Active | Not Active | Not Active | Not Active | Not Active | Not Active | –
22 | COc1ccc(C[C@H]2NC[C@H](O)[C@H]2OC(C)=O)cc1 [ANISOMYCIN] | Not Active | Not Active | Not Active | Not Active | Not Active | Not Active | Not Active | Not Active | Not Active | Not Active | Not Active | Not Active | Not Active | Not Active | –
